Where “and” joins values, the source holds several entries; their conditions need not be identical. Equal values may be shown once. Toxic doses and inconclusive results are not listed.
Tested on: CD2F1 mice, L1210 leukemia ip, survival T/C
Assay: NCI In Vivo Anticancer Drug Screen. Data for tumor model L1210 Leukemia (intraperitoneal) in CD2F1 (CDF1) mice
Settings: higher = longer survival
Procedure, shortened: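 In this screen, transplantable tumors were grown in mice given either the compound or its vehicle. Results were expressed as the treated measurement relative to the control measurement.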

[1] = endpoint: mean survival time, dose: 100.0 mg/kg/injection, schedule: Q04DX003 (ip), vehicle: saline with Tween-80
[2] = endpoint: mean survival time, dose: 200.0 mg/kg/injection, schedule: Q04DX003 (ip), vehicle: saline with Tween-80
[3] = endpoint: mean survival time, dose: 400.0 mg/kg/injection, schedule: Q04DX003 (ip), vehicle: saline with Tween-80
[4] = endpoint: mean survival time, dose: 100.0 mg/kg/injection, schedule: Q01DX001 (ip), vehicle: saline
[5] = endpoint: mean survival time, dose: 200.0 mg/kg/injection, schedule: Q01DX001 (ip), vehicle: saline
[6] = endpoint: mean survival time, dose: 400.0 mg/kg/injection, schedule: Q01DX001 (ip), vehicle: saline
[7] = endpoint: mean survival time, dose: 100.0 mg/kg/injection, schedule: Q01DX009 (ip), vehicle: saline with Tween-80
[8] = endpoint: mean survival time, dose: 400.0 mg/kg/injection, schedule: Q01DX009 (ip), vehicle: saline with Tween-80

For `O=C(O)C1C(C(=O)O)C2C3C4C1C1C2C3C41` (stereo not given), the T/C [1] was 108 % of control, the T/C [2] was 104 % of control and the T/C [3] was 98 % of control.

With `CC1=CC(=O)C(CCC#N)C(C)(C)C1` (stereo not given) the T/C (endpoint: mean survival time, dose: 100.0 mg/kg/injection, schedule: Q04DX002 (ip), vehicle: saline with Tween-80) was 91 % of control.

With `NCC1C2CCC(C2)C1CCCNCCCC1C2CCC(C2)C1CN` (stereo not given) the T/C (endpoint: mean survival time, dose: 6.25 mg/kg/injection, schedule: Q04DX002 (ip), vehicle: saline with Tween-80) was 98 % of control, the T/C (endpoint: mean survival time, dose: 12.5 mg/kg/injection, schedule: Q04DX002 (ip), vehicle: saline with Tween-80) was 107 % of control and the T/C (endpoint: mean survival time, dose: 25.0 mg/kg/injection, schedule: Q04DX002 (ip), vehicle: saline with Tween-80) was 114 % of control.

With `COCCOC(C)C(=O)C(O)S(=O)(=O)O` (stereo not given) the T/C (endpoint: mean survival time, dose: 50.0 mg/kg/injection, schedule: Q01DX001 (ip), vehicle: saline) was 98 % of control, the T/C [4] was 102 % of control and the T/C (endpoint: mean survival time, dose: 100.0 mg/kg/injection, schedule: Q04DX003 (ip), vehicle: saline) was 103 % of control. The T/C [5] was 100 % of control, the T/C (endpoint: mean survival time, dose: 200.0 mg/kg/injection, schedule: Q04DX003 (ip), vehicle: saline) was 103 % of control and the T/C [6] was 100 % of control. The T/C (endpoint: mean survival time, dose: 400.0 mg/kg/injection, schedule: Q04DX003 (ip), vehicle: saline) was 103 % of control.

In the case of `COC(=O)CSC#N`, the T/C (endpoint: mean survival time, dose: 10.0 mg/kg/injection, schedule: Q01DX001 (ip), vehicle: saline) is reported as 111 % of control and the T/C (endpoint: mean survival time, dose: 20.0 mg/kg/injection, schedule: Q01DX001 (ip), vehicle: saline) is reported as 107 % of control.

For `CCOC(=O)CCCN(C)C(C)(C)C#N`, the T/C [7] was 103 % of control and the T/C [8] was 108 % of control.

For `CS(=O)(=O)OC1CC(n2ccc(=O)[nH]c2=O)OC1COC(c1ccccc1)(c1ccccc1)c1ccccc1` (stereo not given), the T/C (endpoint: median survival time, dose: 12.5 mg/kg/injection, schedule: Q01DX005 (ip), vehicle: saline with Tween-80) was 98 % of control and 103 % of control, the T/C (endpoint: median survival time, dose: 25.0 mg/kg/injection, schedule: Q01DX005 (ip), vehicle: saline with Tween-80) was 100 % of control and 96 % of control and the T/C (endpoint: median survival time, dose: 50.0 mg/kg/injection, schedule: Q01DX005 (ip), vehicle: saline with Tween-80) was 108 % of control and 94 % of control. The T/C (endpoint: median survival time, dose: 100.0 mg/kg/injection, schedule: Q01DX005 (ip), vehicle: saline with Tween-80) was 100 % of control and 94 % of control and the T/C (endpoint: median survival time, dose: 200.0 mg/kg/injection, schedule: Q01DX005 (ip), vehicle: saline with Tween-80) was 98 % of control and 101 % of control.

`C/C=C/c1cc2n(c1)C(=O)c1cc(OC3OC(C)C(NC)C(C)(O)C3O)c(C)c(O)c1NC2O` (stereo not given) was tested, and the T/C (endpoint: mean survival time, dose: 4.0 micrograms/kg/injection, schedule: Q01DX009 (ip), vehicle: saline) was 108 % of control and the T/C (endpoint: mean survival time, dose: 8.0 micrograms/kg/injection, schedule: Q01DX009 (ip), vehicle: saline) was 110 % of control.

In the case of `NNS(=O)(=O)c1ccccc1`, the T/C (endpoint: mean survival time, dose: 25.0 mg/kg/injection, schedule: Q04DX003 (ip), vehicle: saline with Tween-80) is reported as 97 % of control, the T/C (endpoint: mean survival time, dose: 50.0 mg/kg/injection, schedule: Q04DX003 (ip), vehicle: saline with Tween-80) is reported as 97 % of control and the T/C [1] is reported as 94 % of control.

In the case of `CN(Cc1ccc2nc(N)nc(N)c2n1)c1ccc(C(=O)NC(CCC(=O)O)C(=O)O)cc1` (stereo not given), the T/C (endpoint: mean survival time, dose: 0.12 mg/kg/injection, schedule: Q01DX005 (ip), vehicle: sodium bicarbonate) is reported as 150 % of control, the T/C (endpoint: mean survival time, dose: 0.5 mg/kg/injection, schedule: Q01DX005 (ip), vehicle: sodium bicarbonate) is reported as 115 % of control and the T/C (endpoint: mean survival time, dose: 31.25 micrograms/kg/injection, schedule: Q01DX005 (ip), vehicle: sodium bicarbonate) is reported as 101 % of control. For the same molecule, the T/C (endpoint: mean survival time, dose: 62.5 micrograms/kg/injection, schedule: Q01DX005 (ip), vehicle: sodium bicarbonate) was 116 % of control and the T/C (endpoint: mean survival time, dose: 125.0 micrograms/kg/injection, schedule: Q01DX005 (ip), vehicle: sodium bicarbonate) was 122 % of control.

`O=[N+]([O-])c1cccc(/C=C/c2ccccn2)c1` was tested, and the T/C (endpoint: mean survival time, dose: 50.0 mg/kg/injection, schedule: Q01DX009 (ip), vehicle: Klucel (hydroxypropylcellulose) (HPC)) was 98 % of control, the T/C (endpoint: mean survival time, dose: 100.0 mg/kg/injection, schedule: Q01DX009 (ip), vehicle: Klucel (hydroxypropylcellulose) (HPC)) was 98 % of control and the T/C (endpoint: mean survival time, dose: 200.0 mg/kg/injection, schedule: Q01DX009 (ip), vehicle: Klucel (hydroxypropylcellulose) (HPC)) was 90 % of control.

In the case of `O=C(CCCCC(=O)N/N=C/c1cccc([N+](=O)[O-])c1)N/N=C/c1cccc([N+](=O)[O-])c1`, the T/C [7] is reported as 87 % of control, the T/C (endpoint: mean survival time, dose: 200.0 mg/kg/injection, schedule: Q01DX009 (ip), vehicle: saline with Tween-80) is reported as 87 % of control and the T/C [8] is reported as 90 % of control.

With `CCOC1(CC)CN(Cc2ccccc2)CCO1` (stereo not given) the T/C [1] was 100 % of control, the T/C [2] was 100 % of control and the T/C [3] was 97 % of control.

For `Cc1cc(C2(c3cc(C)c(O)c(C(=O)O)c3)OS(=O)(=O)c3ccccc32)cc(C(=O)O)c1O`, the T/C [4] was 104 % of control, the T/C [5] was 98 % of control and the T/C [6] was 106 % of control.

For `C1=NCCN1`, the T/C (endpoint: mean survival time, dose: 100.0 mg/kg/injection, schedule: Q01DX009 (ip), vehicle: saline) was 106 % of control, the T/C [1] was 97 % of control and the T/C (endpoint: mean survival time, dose: 200.0 mg/kg/injection, schedule: Q01DX009 (ip), vehicle: saline) was 89 % of control. For the same molecule, the T/C [2] was 97 % of control and the T/C [3] was 90 % of control.

From PubChem BioAssay AID256 (DTP/NCI, 2004)
